Test results published in US11731946B2, “Broad spectrum antivirulence, anti-persistence compounds” (priority 2017, dated 2023).

Experiments:
MvfR regulon [1] = experiment: pqsA gene expression (pqsA-GFP reporter); assay type: cell-based, P. aeruginosa; conditions: for activity at 50 µM: read-out: pqsA @50 uM (%), compound at 50 uM; for activity at 10 µM: read-out: pqsA @10 uM (%), compound at 10 uM
Procedure: Experiments were performed to identify compounds that inhibit the MvfR regulon without altering growth, ultimately attenuating P. aeruginosa infection. MvfR is a LysR-type transcriptional regulator that directs HAQs synthesis, including that of its ligands, 4-hydroxy-2-heptylquinoline (HHQ) and 3,4-dihydroxy-2-heptylquinoline (PQS).
MvfR promotes the production of HAQs by binding to and activating the pqs operon, which encodes enzymes for HAQ synthesis. Anthranilic acid (AA), derived from the phnAB, kynABU, and trpEG pathways, is the precursor for HAQs. pqsA encodes an anthranilate-coenzyme A ligase, which activates anthranilic acid and catalyzes the first committed step to HAQ production. The exact roles of PqsB and PqsC are unknown, though both show homology to acyl-carrier-proteins and both are required for HHQ and PQS production. […] The final gene of the operon, pqsE encodes for a putative hydrolase, and while the protein is not required for the synthesis of HAQs, it is necessary for pyocyanin production.
Nanomolar levels of most of these MvfR antagonists impeded the activity of MvfR and in consequence the MvfR virulence regulated ACRP functions, including: (1) the production of the important pro-acute P. aeruginosa virulence factor pyocyanin (see e.g., FIG. 9A) the efficacy of two of these potent inhibitors, D57 and D88, was also confirmed by testing many different MDR P. aeruginosa clinical isolates (see e.g., FIG. 11A-11B), providing further confidence of their inhibitory potency; (2) the expression of the genes that encode the enzymes catalyzing the synthesis of both pro-acute and pro-persistence MvfR-regulated virulence molecules, 4-hydroxyl-2-alkyl-quinolines (HAQs) and 2-aminoacetophenon (2-AA), as assessed by pqsAGFP reporter gene expression (see e.g., FIG. 9B) and HAQ production showing the levels of MvfR inducers/ligands HHQ and PQS as well as of the molecules critical for biofilm and Antibiotic tolerant/persiters cells formation HQNO and 2-AA (see e.g., FIG. 9C); (3) AT/P cell formation (see e.g., FIGS. 11A, 12A); (4) biofilm formation (see e.g., FIG. 12B); and (5) biofilm dispersal of preformed biofilm by potentiating antibiotic action (see e.g., FIG. 11B).

MvfR regulon [2] = experiment: Quantification of pyocyanin (OD520nm of chloroform-extracted cultures); assay type: cell-based, P. aeruginosa; conditions: for activity at 50 µM / activity at 1 µM / activity at 10 µM / IC50: Pseudomonas aeruginosa; for activity at 50 µM: read-out: pyocyanin @50 uM (%), compound at 50 uM; for activity at 1 µM: read-out: pyocyanin @1 uM (%), compound at 1 uM; for activity at 10 µM: read-out: pyocyanin @10 uM (%), compound at 10 uM; for IC50: read-out: IC50 pyocyanin (μM)
[3] = compound at 50 uM, listed as D92

SMILES	activity at 50 µM (MvfR regulon [1]; Pseudomonas aeruginosa) [%]	activity at 50 µM (MvfR regulon [2]) [%]	activity at 10 µM (MvfR regulon [1]; Pseudomonas aeruginosa) [%]	activity at 1 µM (MvfR regulon [2]) [%]	activity at 10 µM (MvfR regulon [2]) [%]	other results
Cc1ccc(NCC(=O)Nc2ccccc2)c(C)c1 [Compound 41]	92.8	94.5	–	–	–	–
N#Cc1ccc(NC(=O)CC(=O)Nc2ccc(C#N)cn2)cc1 [Compound 93]	–	14.3	61.3	79.6	53.5	–
N#Cc1ccc(NC(=O)CNc2ccc(F)cc2F)cc1 [Compound 16]	56.3	89.1	–	–	–	–
N#Cc1ccc(NC(=O)CC(=O)Nc2cccc(F)c2)cc1 [Compound 87]	–	30.2	77.8	94.6	65.5	–
N#Cc1ccc(/C=C/C(=O)Nc2ccc(C#N)cc2)cc1 [Compound 98]	–	114	114	94.5	108	–
Cc1ccc(F)cc1NCC(=O)Nc1ccc(C#N)cc1 [Compound 30]	28.1	68.5	–	–	–	–
Cc1ccc(NCC(=O)N(C)c2ccccc2)c(C)c1 [Compound 32]	88	111	–	–	–	–
CC(C)c1ccc(NCC(=O)Nc2ccc(C#N)cc2)cc1 [Compound 45]	52.8	59.1	–	–	–	–
N#Cc1ccc(NC(=O)C(N)C(=O)Nc2ccc(C#N)cc2)cc1 [Compound 114]	1.75	2.85	58.9	94.9	66.1	–
Cc1cc(F)ccc1NCC(=O)Nc1cccc([N+](=O)[O-])c1 [Compound 26]	76.5	85.2	–	–	–	–
N#Cc1ccc(NC(=O)CC(=O)Cc2ccc(F)cc2)cc1 [Compound 99]	–	102	96.3	92	115	–
N#Cc1ccc(NC(=O)C2CCN(c3ccc(F)cc3)C2=O)cc1 (centres unmarked) [Compound 94]	–	95.2	109	94.6	94	–
Cc1cc(F)ccc1NCC(=O)Nc1c(F)cccc1F [Compound 22]	89.2	89.9	–	–	–	–
N#Cc1ccc(NC(=O)CC(=O)Nc2ccc(Oc3ccccc3)cc2)c(N)c1 [Compound 107]	–	–	2.1	75	12.1	pqsA @50 uM (%) (MvfR regulon [1]; [3]): 1.40%; pyocyanin @50 uM (%) (MvfR regulon [2]; [3]): 3.51%
Cc1cc(F)ccc1NCC(=O)NC1CC1 [Compound 35]	92.5	107	–	–	–	–
Cc1cc(F)ccc1NCC(=O)Nc1cccc(Cl)c1 [Compound 34]	70.9	96.1	–	–	–	–
N#Cc1ccc(NC(=O)CC(=O)N2CCc3cc(C#N)ccc32)cc1 [Compound 97]	–	82.3	99.7	99.9	74.5	–
N#Cc1ccc(NC(=O)CC(=O)Nc2cccc(Cl)c2)cc1 [Compound 86]	–	12.5	59.8	83.2	45.4	IC50 (MvfR regulon [2]): 1.54 µM
N#Cc1ccc(NC(=O)CNc2cccc(F)c2)cc1 [Compound 18]	68	91.3	–	–	–	–
COc1ccc(NC(=O)CNc2ccc(F)cc2C)cc1 [Compound 27]	86.9	102	–	–	–	–
O=C(Nc1ccc(Oc2ccccc2)cc1)[C@@H](F)C(=O)Nc1ccc(C(F)(F)F)cc1 (racemic) [Compound 115]	1.75	7.08	1.05	27.1	11.4	–
N#Cc1ccc(NC(=O)CNc2ccccc2F)cc1 [Compound 37]	84	97.3	–	–	–	–
CC(=O)c1ccc(NC(=O)CNc2ccc(F)cc2C)cc1 [Compound 20]	97.7	102	–	–	–	–
N#Cc1ccc(NC(=O)CNc2ccc(Cl)cc2)cc1 [Compound 28]	17.7	43.2	–	–	–	IC50 (MvfR regulon [1]; Pseudomonas aeruginosa, read-out: IC50 pqsA (μM)): 24.6 µM; IC50 (MvfR regulon [2]): 20.4 µM
